Article PMC12274739, “Differential substrate degradation by super-degron: EGFP in wild-type mouse cells, PD-1 requires CRBN humanization” (iScience, 2025)

Columns and labels:
[1] = test system: Ba/F3 mouse pro-B cell line; parameters: method as in PMID 38484051; settings: cited from earlier work
[2] = parameters: method as in PMID 32969202; settings: humans, cited from earlier work
PD-1-SD = assay: Exogenous PD-1-SD degradation in mESCs; format: cell-based, mouse
Procedure: The dotted lines show an isotype control without IBR. […] The dotted lines show an isotype control without IBR. […] The black lines show isotype control without IBR. […] Red lines show the boundary between positive and negative. […] (B–J) IBR or solvent (−) was added to cultured splenocytes (B–G) or mESCs (H–J). […] The concentration is 0.1 μM in the rightmost bar in each group, and the left neighbor is a step dilution of one-tenth. Intensities of anti-PD-1-FITC on CD4^+ and CD8^+ T cells were measured by flow cytometry, and the geometric means of fluorescence intensities (MFI) were calculated. The MFI of the isotype control of anti-PD-1-FITC was subtracted from each MFI of anti-PD-1-FITC. The dots indicate the results of the experiment for each of the three samples from different individuals.
To determine whether the same phenomenon occurs in non-T cells, exogenous PD-1 degradation was examined in mESCs transfected with PD-1-SD expression vectors (Figures 6H–6J and S6E). […] We hypothesized that the degradation efficiency of membrane-localized proteins might be reduced in mouse-type CRBNs. Therefore, we expressed EGFP-SDs with membrane-localized peptides attached to their N-termini in mESCs and added IBR. The degradation efficiency of EGFP-SD with membrane-localization peptide[32] […] Therefore, Pdcd1^SD/SD/Crbn^I391V/I391V mice were used for further analyses.

mouse PD-1-SD = assay: Linker evaluation of mouse PD-1-SD in Jurkat cells; format: cell-based, human; settings: PD-1-SD with a linker, 1 µM iberdomide for 1 day
Excerpt: We used human Jurkat cells as it was difficult to accurately assess exogenous PD-1 expression, as EL4 cells originally expressed mouse PD-1. […] Therefore, the simplest “no linker” construct was adopted for in vivo protein knockdown in mice. Considering that fluorescent proteins affect the degradation efficiency of PD-1,[31] we decided to knock in without a fluorescent protein as a marker. SD was inserted downstream of the endogenous Pdcd1 gene (the gene encoding PD-1) in Crbn^I391V/I391V mice using genome editing (Figures 6A and S5), and double homozygous (Pdcd1^SD/SD/Crbn^I391V/I391V) mice were produced by intercrossing.
Figure S4 Evaluation of linker sequences between PD-1 and super degron tag A Amino acid sequences of various linkers between PD-1 and super degron (SD) tag. Sequences […]
were measured by flow cytometry, and the geometric means of fluorescence intensities (MFI) were calculated. The dots indicate the results of the experiment for each of the three samples.
(§1) (1 picture or pasted object on this page, not shown here)

[3] = Histopathological examination of organs; format: in vivo, mouse; settings: Pdcd1SD/SD/CrbnI391V/I391V mice with MC-38 inoculation and IBR treatment
Procedure: The important functions of PD-1 are to suppress autoimmunity, and depletion or suppression of PD-1 leads to autoimmune diseases.[37]
Mice were sacrificed under deep anesthesia then all organs were isolated and immediately immersed in 10% buffered neutral formalin. After fixation for 48 h, tissues were processed as formalin-fixed paraffin-embedded blocks and sliced into 3 μmμ sections, followed by hematoxylin and eosin (HE) staining, periodic acid Schiff (PAS) staining, and Elastica-Masson Goldner staining. All slides were analyzed by a skilled pathologist (T.M.). Glomerular lesions were evaluated using the histological glomerular index, and other organs were scored from 0 (normal) to 3 (necrotic, severe organ injury).
Figure S11 Histological analysis of super degron tag-knockin mice for autoimmune […]
Representative histological manifestations of kidney (A-C), liver (D-F) and large intestine (G-I) of Pdcd1SD/SD/CrbnI391V/I391V mice (A, D and G), Pdcd1+/+/CrbnI391V/I391V mice (B, E and H) and […]
Liver and large intestine manifested normal histological findings in each group (A-C: PAS stain, d-i: HE stain, Bar = 25 µm in A-C, 100 µm in D-I).
as §1
Figure S12 Glomerular index of super degron tag-knockin mice
Glomerular index of each group of mice. […]
higher index nevertheless there were no statistically significant differences among

SD-EGFP = SD-EGFP (Aequorea victoria, UniProt P42212, F64L/H231L/S65T); settings: rat ESCs, stable
EGFP-SD = assay: Degradation of stably expressed EGFP-SD in human cell lines (hESCs, HEK293, Jurkat); format: cell-based; settings: for bottom vs top, EGFP-SD: IBR up to 1 μM

| SMILES | proteins reduced [1] | IBR present after 24 h, of the maximum concentration ([2]; multiple doses) | time of serum concentration peak ([2]; oral, single and multiple once-daily doses) | serum concentration with multiple doses compared to a single dose [2] | PD-1 degradation (PD-1-SD; Crbn+/+ mESCs transfected with PD-1-SD) | PD-1 degradation (PD-1-SD; CrbnI391V/I391V mESCs transfected with PD-1-SD) | PD-1 expression (mouse PD-1-SD) | histopathological organ injury [3] | Bottom, SD-EGFP (SD-EGFP) | bottom vs top, SD-EGFP (SD-EGFP; IBR up to 1 μM) | DC50 (SD-EGFP; read-out: DC50, SD-EGFP) | Bottom, EGFP-SD (EGFP-SD; HEK293, stable) | DC50 (EGFP-SD; HEK293, stable) | bottom vs top, EGFP-SD (EGFP-SD; HEK293, stable) | Bottom, EGFP-SD (EGFP-SD; Jurkat, stable) | DC50 (EGFP-SD; Jurkat, stable) | bottom vs top, EGFP-SD (EGFP-SD; Jurkat, stable) | Bottom, EGFP-SD (EGFP-SD; human ESCs, stable) | DC50 (EGFP-SD; human ESCs, stable) | bottom vs top, EGFP-SD (EGFP-SD; human ESCs, stable) |
| --- | --- | --- | --- | --- | --- | --- | --- | --- | --- | --- | --- | --- | --- | --- | --- | --- | --- | --- | --- | --- |
| Nc1cccc2c1C(=O)N(C1CCC(=O)NC1=O)C2=O (centres unmarked) [POM, pomalidomide] | very few proteins |  |  |  |  |  |  |  |  |  |  |  |  |  |  |  |  |  |  |  |
| O=C1CC[C@H](N2Cc3c(OCc4ccc(CN5CCOCC5)cc4)cccc3C2=O)C(=O)N1 [IBR, iberdomide] |  | about 20% | 3 h | doubles | barely degraded | degraded | significantly reduced | no significant organ injury | 0.01454 | 0.057 | 271 pM | 0.01028 | 5.45 pM | 0.009 | 0.02414 | 11.8 pM | 0.024 | 0.007522 | 2.78 pM | 0.005 |
